Reference: BindingDB's records for doi:10.1124/jpet.102.039867 (Institut De Recherches Servier, 2002)

Target: T1, Alpha-2C adrenergic receptor (Homo sapiens, UniProt P18825)
T1 sequence (P18825 whole entry): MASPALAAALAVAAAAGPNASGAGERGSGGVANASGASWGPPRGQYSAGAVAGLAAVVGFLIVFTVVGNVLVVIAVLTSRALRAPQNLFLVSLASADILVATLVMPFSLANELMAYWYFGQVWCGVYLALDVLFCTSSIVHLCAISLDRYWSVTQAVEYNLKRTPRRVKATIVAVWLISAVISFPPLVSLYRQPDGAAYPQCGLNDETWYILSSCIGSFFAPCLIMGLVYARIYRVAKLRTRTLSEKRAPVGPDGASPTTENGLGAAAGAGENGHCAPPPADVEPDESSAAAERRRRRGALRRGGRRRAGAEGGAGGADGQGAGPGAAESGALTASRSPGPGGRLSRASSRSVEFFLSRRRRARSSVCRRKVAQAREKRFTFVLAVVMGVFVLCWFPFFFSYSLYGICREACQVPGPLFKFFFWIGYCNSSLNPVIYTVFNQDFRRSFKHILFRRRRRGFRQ

Row | SMILES | Ki
1 | Oc1ccc2[nH]cc(CCCCN3CC=C(c4ccccc4)CC3)c2c1 | 1.78 nM
2 | CCN(CC)C(=O)N[C@H]1C[C@@H]2c3cccc4[nH]cc(c34)C[C@H]2N(C)C1 | 0.76 nM
3 | CCCN(CCC)CCc1cccc2c1CC(=O)N2 | 1200 nM
4 | CN(C)C1CCc2cc(O)c(O)cc2C1 (stereo not given) [(6,7-Dihydroxy-1,2,3,4-tetrahydro-naphthalen-2-yl)-dimethyl-ammonium] | 6.03 nM
5 | CN1CCc2cccc3c2[C@H]1Cc1ccc(O)c(O)c1-3 [APOKYN] | 36.3 nM
6 | C=CCN1CCc2nc(N)sc2CC1 [B-HT 920] | 42.7 nM
7 | C=CCN1CC(C(=O)N(CCCN(C)C)C(=O)NCC)CC2c3cccc4[nH]cc(c34)CC21 (stereo not given) [NSC_54746] | 22.4 nM
8 | CCCN1C[C@H](CSC)C[C@@H]2c3cccc4[nH]cc(c34)C[C@H]21 [Permax] | 67.6 nM
9 | CCCNC1CCc2nc(N)sc2C1 (stereo not given) [Pramipexole] | > 10000 nM
10 | CCCN1CCC[C@@H]2Cc3nc(N)ncc3C[C@H]21 [Quinerolane] | > 10000 nM
